Source: paper PMC6273209, “Evaluation of the Enantiomer Specific Biokinetics and Radiation Doses of [^18F]Fluspidine—A New Tracer in Clinical Translation for Imaging of σ1 Receptors” (Molecules, 2016)
Where two headings read alike, the source gives them in different places.

Assays:
[1] = imaging, cited from earlier work
[2] = cited from earlier work
[3] = cited from earlier work; remark: listed apart in the source
σ1 receptors = molecular target: σ1 receptors; design: method as in PMID 24130175; conditions: read-out: Ki (affinity towards σ1 receptors); cited from earlier work
[4] = Acute toxicity study, single intravenous injection; assay type: in vivo; conditions: Wistar rats
Excerpt: Supplementary Materials: Evaluation of the Enantiomer Specific Biokinetics and Radiation Doses of [18F]Fluspidine—A New Tracer in Clinical
Translation for Imaging of σ1 Receptors […]
Supplemental Methods and Results
Animal Toxicity Study of (S)-(−)-Fluspidine
The purpose of this study was to assess the acute toxicity of (S)-(−)-fluspidine when administered by a single intravenous injection to rats followed by an observation period of 2 or 15 day (in accordance with EU cGLP). Briefly, the study was performed with 4 test groups, including 1 control (saline and dimethylsulfoxide) and 3 dose groups (6.2, 62 and 620 µg/kg, (S)- (−)ﬂuspidine), with Wistar rats (60 m, 60 f, 12 weeks) divided into two experiments: day 2 (40 males and 40 females) and day 15 (20 males and 20 females). The animals were weighted and allocated to the test groups based on their actual body weights. The animals were sacrificed at two time periods (day 2 and day 15 after test item administration) and then examined macroscopically and histopathologically. In addition the following parameters were evaluated: mortality, clinical observation (spasms, tremor and hyperactivity), body weights, food consumption, haematology (white blood cells, red blood cells, hemoglobin, hematocrit, mean corpuscular volume, mean corpuscular hemoglobin, platelets, lympohcytes, neutrophils, eosinophils, basophils, monocytes), clinical chemistry (alkaline phosphatase, aspartate aminotransferase, alanine aminotransferase, glucose, cholesterol, triacylglycerols, creatinine, urea, bilirubin, albumin, calcium, phosphorus, sodium, potassium chloride), pathology and histopathology. […]
in either gender were detected. The food consumption corresponded with body weight development. All haematology parameter´s values on day 2 and day 15 were within physiological range for this species. Individual divergences of some values of the haematology parameters were slight and not connected with treatment.
There were no findings in clinical chemistry parameters which could be definitively considered as adverse. The average values of all test groups were within the historical control ranges. Occasional changes had no dose relationship, they were considered to be a result of intraindividual and interindividual variability for this species. […]
histopathological parameters on day 2 and day 15. The no observed effect level (NOEL) of (S)- (−)-fluspidine after single intravenous administration in this study for both day 2 and day 15 was determined to be 620 µg/kg.

[5] = design: method as in PMID 12573321, PMID 12589478; conditions: cited from earlier work

Q: Which “ED Preclinical” value ([1]; piglets) does the source give for `[18F]c1ccc(C2CC3CCCC2N3)cn1` (single isomer, unassigned; (+)) [(+)-[^18F]flubatine] here?
A: 14.3 μSv/MBq

Q: And the “ED Clinical” value [2]?
A: 23.0 μSv/MBq

Q: What about the “ED Preclinical” value ([3]; mouse, imaging) of the same molecule?
A: 12.1 μSv/MBq

Q: For `[18F]c1ncccc1OC[C@@H]1CCN1` [2-[^18F]F-A85380], which “ED Clinical” value [2] is on record?
A: 19.4 μSv/MBq

Q: Which Ki (σ1 receptors) does the source give for `FCC[C@H]1OC2(CCN(Cc3ccccc3)CC2)c2ccccc21` [(R)-(+)-[^18F]fluspidine] here?
A: 0.57 nM

Q: Which “body weights, control vs treated groups” value ([4]; single i.v. 6.2, 62 and 620 µg/kg, either gender) does the source give for `FCC[C@@H]1OC2(CCN(Cc3ccccc3)CC2)c2ccccc21` [(S)-(−)-fluspidine] here?
A: No statistically significant differences in body weights

Q: And the “adverse findings in clinical chemistry parameters” value ([4]; single i.v.)?
A: no findings

Q: And the “effect on haematology parameters” value ([4]; single i.v., day 2 and day 15)?
A: No test item effect

Q: And the “toxicological changes in pathological and histopathological parameters” value ([4]; single intravenous administration, day 2 and day 15)?
A: did not cause toxicological changes

Q: What about the “no observed effect level (NOEL)” value ([4]; single intravenous administration, day 2 and day 15, highest tested dose) of the same molecule?
A: 0.62 mg/kg

Q: For `[18F]c1ccc([C@@H]2C[C@H]3CCC[C@@H]2N3)cn1` [(−)-[^18F]flubatine], which “ED Preclinical” value ([1]; piglet) is on record?
A: 14.7 μSv/MBq

Q: What about the “ED Clinical” value [2] of the same molecule?
A: 23.4 μSv/MBq

Q: And the “ED Preclinical” value ([3]; mouse)?
A: 12.5 μSv/MBq

Q: For `OC[C@H]1OC(O)[C@H]([18F])[C@@H](O)[C@@H]1O` (stereo partly shown) [[^18F]FDG], which “ED Clinical” value [2] is on record?
A: 19.0 μSv/MBq

Q: Which results are given for `COc1ccc(OCC[18F])c(CN(C(C)=O)c2cc(F)ccc2Oc2ccccc2)c1` [[^18F]FEDAA1106]?
A: ED Clinical [2]: 36 μSv/MBq; ED Preclinical ([3]; female mouse): 26.0 μSv/MBq; ED Preclinical ([3]; male mouse): 21.0 μSv/MBq

Q: Which “ED Preclinical” value [5] does the source give for `N[C@@H](Cc1ccc(OCC[18F])cc1)C(=O)O` [[^18F]FET] here?
A: 9.0 μSv/MBq

Q: What about the “ED Clinical” value [2] of the same molecule?
A: 16.5 μSv/MBq
